Test results from publication PMC8922279, “Identification of β-Lactams Active against Mycobacterium tuberculosis by a Consortium of Pharmaceutical Companies and Academic Institutions” (ACS Infectious Diseases, 2022).
≈ marks a conversion by molar mass, not a printed value.

Experiments:
[1] = 300 mg/kg sc, uninfected DHP-1 mice
P. aeruginosa = experiment: Microbial spectrum, P. aeruginosa; format: cell-based, Pseudomonas aeruginosa
plasma proteins [2] = conditions: 4 h, 2 μM, pH 7.4
in vitro [3] = conditions: SD, rat, plasma, pH 7.4, % bound to plasma
in vitro [4] = conditions: human, plasma, Plasma stability % Remaining
[5] = SD, 2 h, 2 μM
Mtb H37Rv = experiment: MIC90 against nonreplicating (NR, 4-stress) Mtb H37Rv, with or without clavulanate; format: cell-based, Mycobacterium tuberculosis; conditions: 4-stress nonreplicating, Table S4
hERG = biological target: T1, hERG (Homo sapiens, UniProt Q12809); experiment: hERG channel measurements (QPatch automated patch clamp); format: cell-based; conditions: HEK293 cells stably transfected with hERG (inducible), pH 7.4
T1 construct: expressed in transfected cells
T1 sequence (Q12809 whole entry): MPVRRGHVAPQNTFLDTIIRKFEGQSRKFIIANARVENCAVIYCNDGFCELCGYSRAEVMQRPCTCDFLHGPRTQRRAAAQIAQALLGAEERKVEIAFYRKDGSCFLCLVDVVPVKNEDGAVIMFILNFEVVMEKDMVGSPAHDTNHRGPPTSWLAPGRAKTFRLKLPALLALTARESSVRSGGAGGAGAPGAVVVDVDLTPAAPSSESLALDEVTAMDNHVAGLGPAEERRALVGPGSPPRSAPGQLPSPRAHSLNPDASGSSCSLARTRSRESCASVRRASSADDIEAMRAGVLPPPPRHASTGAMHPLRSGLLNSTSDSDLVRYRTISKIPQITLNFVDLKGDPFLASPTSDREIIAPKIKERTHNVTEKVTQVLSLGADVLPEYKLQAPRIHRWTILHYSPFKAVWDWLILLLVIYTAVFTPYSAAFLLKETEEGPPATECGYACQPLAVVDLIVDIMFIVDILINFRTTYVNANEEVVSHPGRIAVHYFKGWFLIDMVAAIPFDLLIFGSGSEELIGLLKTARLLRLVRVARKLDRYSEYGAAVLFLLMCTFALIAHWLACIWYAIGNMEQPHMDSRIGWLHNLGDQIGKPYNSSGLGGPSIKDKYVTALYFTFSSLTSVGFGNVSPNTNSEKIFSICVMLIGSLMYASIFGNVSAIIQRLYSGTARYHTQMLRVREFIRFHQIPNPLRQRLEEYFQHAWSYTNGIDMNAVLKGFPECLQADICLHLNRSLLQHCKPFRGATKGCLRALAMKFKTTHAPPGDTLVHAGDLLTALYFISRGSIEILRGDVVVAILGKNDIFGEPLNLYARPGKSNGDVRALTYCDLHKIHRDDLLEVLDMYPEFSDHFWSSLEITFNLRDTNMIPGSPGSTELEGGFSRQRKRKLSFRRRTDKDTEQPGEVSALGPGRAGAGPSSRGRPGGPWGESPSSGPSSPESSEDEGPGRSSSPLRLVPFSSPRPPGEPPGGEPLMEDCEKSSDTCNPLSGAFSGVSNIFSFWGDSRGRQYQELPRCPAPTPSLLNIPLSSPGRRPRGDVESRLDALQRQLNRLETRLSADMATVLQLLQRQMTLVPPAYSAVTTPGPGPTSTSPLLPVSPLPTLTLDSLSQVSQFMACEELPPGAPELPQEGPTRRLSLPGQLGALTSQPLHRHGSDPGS
Description: The potency of the compounds in inhibiting the human ERG potassium channel (hERG) tail current was assessed in a recombinant HEK293 cell line stably transfected with hERG cDNA under an inducible promoter using the rapid ICE (rapid ion channel electrophysiology) assay. Rapid ICE is an automated patch clamp assay utilizing a QPatch HTX system (Sophion Bioscience A/S). Briefly, inducible HEK hERG cells were cultivated in minimum essential medium supplemented with 10% FBS, 1% nonessential amino acids, 1% sodium pyruvate, 2 mM L-glutamine, 15 μg/mL blasticidin, and 100 μg/mL hygromycin. hERG channel induction was obtained by adding 10 μg/mL tetracycline for 24, 48, or 72 h before recordings. On the day of the experiment, cells were detached with TrypLE and prepared to be loaded on the instrument. Cells were resuspended in 7 mL of serum-free media containing 25 mM Hepes and soybean trypsin inhibitor and immediately placed in the cell storage tank of the machine. […] The voltage protocol was run and recorded continuously during the experiment. […] The average of tail current amplitude values recorded from four sequential voltage pulses was used to calculate for each cell the effect of the test substance by calculating the residual current (% control) compared with vehicle pretreatment. […]

physchem [6] = format: physicochemical; conditions: thermodynamic from solid
Description: Compounds were prepared at 1 mg/mL and left overnight at room temperature with stirring in phosphate buffer, 50 mM, at pH 7.4 or in 0.1 N HCl at pH 1. After separation of the soluble fraction by centrifugation, samples were filtered onto a polytetrafluoroethylene […] filter (Millipore) and then analyzed by HPLC.

[7] = 2 h, 2 μM
physchem [8] = conditions: simulated gi fluid, pH 1.2
in vivo [9] = conditions: female, 129sv DHP-1 knockout, mouse, sc, 50 mg/kg
[10] = Cytotoxicity against HepG2 cells (CellTiter-Glo); format: cell-based, human; conditions: human, HepG2 cells
Description: (§1) Compounds were tested for cytotoxicity against HepG2 cells as previously described.[48],[69],[70] Briefly, cells were exposed to compounds for 48–72 h, and viability was measured using CellTiter-Glo (Promega).

HepG2 cells = experiment: Cytotoxicity against HepG2 cells (CellTiter-Glo); format: cell-based, human; conditions: Table S4
Description: as §1

[11] = male, CD-1, mouse, 2 h, 2 μM
in vitro [12] = conditions: human, plasma, pH 7.4, % bound to plasma
in vivo [13] = conditions: DHP-1 knockout, mouse, sc, 300 mg/kg
[14] = Metabolic stability, human; format: in vitro ADME
Description: Metabolic stability and induction of human hepatocytes were performed as previously described.[71]

plasma proteins [15] = conditions: 4 h, 2 μM, pH 7.4; remark: listed apart in the source
in vitro [16] = conditions: CD-1, mouse, plasma, pH 7.4, % bound to plasma
wild-type Mtb H37Rv = format: in vivo, 129sv DHP-1 knockout mice
in vitro [17] = conditions: male, CD-1, mouse, plasma, Plasma stability % Remaining
[18] = Metabolic stability, mouse; format: in vitro ADME

Structure (SMILES): O=C(Cc1ccc(C2=NCCN2)cc1)N[C@@H]1C(=O)N2C(C(=O)O)=C(CSc3nncs3)CS[C@H]12 [TBBL-0000316]
- Tlast [1]: 2.0 to 4.0 h
- MIC90 (P. aeruginosa; Pseudomonas aeruginosa, P. aeruginosa): > 100 µM
- P.aeruginosa R + CLAV (MIC90) (P. aeruginosa; clavulanate 4 μg/mL, Table S4): > 100 µM
- % bound to plasma, SD Rat (plasma proteins [2]): 62%
- fraction unbound at 4 h, 2 μM (in vitro [3]): 0.378
- Caco-2 Rank Papp (Caco-2 cells): Low
- Efflux Transporter Substrate (Caco-2 cells): Poor or no
- remaining at 2 h, 2 μM (in vitro [4]): 86.1%
- Plasma stability % Remaining, Rat [5]: 86%
- Mtb H37Rv NR + CLAV (MIC90) (Mtb H37Rv; clavulanate 4 μg/mL): > 100 µM
- Mtb H37Rv NR (MIC90) (Mtb H37Rv; no clavulanate): > 100 µM
- IC50 at 5 min (hERG): > 50 µM
- solubility (physchem [6]; pH 1, simulated gastric fluid): 402 µg/mL (≈ 778 µM)
- solubility (physchem [6]; pH 7.4, aqueous buffer): > 1000 µg/mL
- Plasma stability % Remaining, Human [7]: 86%
- remaining at 1 h, 10 μM (physchem [8]): 83.7%
- remaining at 24 h, 10 μM (physchem [8]): 0.45%
- AUC(0-t) (in vivo [9]): 23700 ng·h/mL
- Cmax (in vivo [9]): 17500 ng/mL
- Tmax (in vivo [9]): 30 min
- IC50 [10]: > 100 µM
- HepG2 LD50 (HepG2 cells): > 100 µM
- Plasma stability % Remaining, Mouse [11]: 89%
- fraction unbound at 4 h, 2 μM (in vitro [12]): 0.619
- AUC(0-t) (in vivo [13]): 60200 ± 11400 ng·h/mL
- Cmax (in vivo [13]): 28700 ± 866 ng/mL
- Tmax (in vivo [13]): 60 to 120 min
- metabolic stability [14]: 5.4 μL/min/mg protein
- metabolic stability 1/2 life [14]: 256 min
- % bound to plasma, Human (plasma proteins [15]): 38%
- fraction unbound at 4 h, 2 μM (in vitro [16]): 0.817
- Log10 CFU per mouse (lungs), Mean (wild-type Mtb H37Rv; 50 mg/kg sc bid + clavulanate 100 mg/kg po bid, days 9-15, lungs day 16, untreated day 16 mean 9.1): 8.2 Log10 CFU
- reduction of lung CFU compared to untreated control mice (wild-type Mtb H37Rv; mouse, in vivo): 0.9 log10
- remaining at 2 h, 2 μM (in vitro [17]): 88.5%
- metabolic stability [18]: 1.1 μL/min/mg protein
- metabolic stability 1/2 life [18]: 1300 min
